Like-named read-outs stand apart in the source and are kept apart here.
Columns and labels:
JAK1 = target: T1, JAK1 (Homo sapiens, UniProt P23458); assay: Biochemical JAK1 kinase assay (LanthaScreen); conditions: for Ki: read-out: JAK 1 (pKi) (converted)
T1 construct: GST; purchased Life Technologies
In short: (§1)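 TR-FRET read-out: terbium anti-pSTAT1 (pTyr701) antibody, 2 nM, with 10 mM EDTA quench, emission ratio 520/495 nm. GST-JAK phosphorylates GFP-STAT1 peptide for 1 h at ambient temperature after 1 h compound pre-incubation. pIC50 from dose-response converted to pKi by Cheng-Prusoff.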

[1] = tested on: IL-2 stimulated pSTAT5 in Tall-1 T cells; assay: Cellular JAK3 potency assay: inhibition of IL-2 stimulated pSTAT5 in Tall-1 T cells; assay type: cell-based, human; conditions: for IC50: Homo sapiens, read-out: Tall-1 (pIC50) (converted)
In short: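 Inhibition of IL-2-induced pSTAT5 was quantified by AlphaLisa in Tall-1 cell lysates. Compound exposure lasted 1 h before 30 min stimulation with 300 ng/ml IL-2 final.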

JAK2 = target: T2, JAK2 (Homo sapiens, UniProt O60674); assay: Biochemical JAK2 kinase assay (LanthaScreen); conditions: for Ki: read-out: JAK 2 (pKi) (converted)
T2 construct: GST; purchased Life Technologies
In short: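 pKi values derive from pIC50 via Cheng-Prusoff, with IC50 from a 4-parameter fit of percent-inhibition TR-FRET data using Tb-anti-pSTAT1 (pTyr701) detection. Compound, GST-JAK2 and GFP-STAT1 substrate were pre-incubated 1 h, then ATP started a 1 h ambient reaction (HEPES pH 7.5, 10 mM MgCl2, 1% DMSO).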

Tyk2 = target: T3, Tyk2 (Homo sapiens, UniProt P29597); assay: Biochemical Tyk2 kinase assay (LanthaScreen); conditions: for Ki: read-out: Tyk 2 (pKi) (converted)
T3 construct: GST; purchased Life Technologies
In short: as §1

JAK3 = target: T4, JAK3 (Homo sapiens, UniProt P52333); assay: Biochemical JAK3 kinase assay (LanthaScreen); set-up: GST; purchased Life Technologies; conditions: for Ki: read-out: JAK 3 (pKi) (converted)
T4 sequence (P52333 1-1124): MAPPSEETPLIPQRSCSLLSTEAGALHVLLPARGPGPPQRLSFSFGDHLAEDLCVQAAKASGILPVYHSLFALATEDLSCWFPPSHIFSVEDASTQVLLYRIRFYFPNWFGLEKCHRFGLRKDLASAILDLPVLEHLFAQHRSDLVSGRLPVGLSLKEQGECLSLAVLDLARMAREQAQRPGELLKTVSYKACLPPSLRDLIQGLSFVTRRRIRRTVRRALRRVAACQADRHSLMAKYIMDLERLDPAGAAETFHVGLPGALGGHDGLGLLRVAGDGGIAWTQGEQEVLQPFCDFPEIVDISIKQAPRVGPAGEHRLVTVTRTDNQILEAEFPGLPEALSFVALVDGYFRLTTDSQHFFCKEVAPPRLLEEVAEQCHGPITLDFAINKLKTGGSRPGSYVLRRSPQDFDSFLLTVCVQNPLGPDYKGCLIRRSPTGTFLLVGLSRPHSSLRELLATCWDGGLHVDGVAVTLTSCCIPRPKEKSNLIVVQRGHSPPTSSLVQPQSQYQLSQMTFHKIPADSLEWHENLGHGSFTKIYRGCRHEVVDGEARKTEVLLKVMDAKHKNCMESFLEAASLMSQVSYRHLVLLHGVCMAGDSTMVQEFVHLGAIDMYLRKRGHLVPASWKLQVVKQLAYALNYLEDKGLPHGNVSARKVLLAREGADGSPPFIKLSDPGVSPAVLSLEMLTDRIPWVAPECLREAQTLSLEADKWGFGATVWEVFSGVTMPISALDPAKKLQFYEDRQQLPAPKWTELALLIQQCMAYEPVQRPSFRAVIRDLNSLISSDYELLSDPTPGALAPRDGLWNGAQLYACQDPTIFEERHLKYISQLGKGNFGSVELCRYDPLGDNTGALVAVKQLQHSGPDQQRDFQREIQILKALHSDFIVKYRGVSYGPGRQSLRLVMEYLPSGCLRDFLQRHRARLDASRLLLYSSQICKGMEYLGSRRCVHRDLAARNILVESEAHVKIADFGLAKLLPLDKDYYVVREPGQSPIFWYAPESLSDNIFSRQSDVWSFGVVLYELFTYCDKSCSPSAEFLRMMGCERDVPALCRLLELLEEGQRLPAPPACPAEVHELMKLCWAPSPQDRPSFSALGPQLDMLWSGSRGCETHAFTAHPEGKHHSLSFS
In short: as §1

[2] = IL-2 stimulated pSTAT5 in Tall-1 T cells
[3] = selectivity: difference of pKi JAK3 and pKi JAK1
[4] = IL-2 stimulated pSTAT5, Tall-1 T cells
[5] = selectivity JAK3 over JAK1, difference of pKi
[6] = TALL-1, IL-2 stimulated pSTAT5 in Tall-1 T cells
[7] = TALL-1, IL-2 stimulated pSTAT5, Tall-1 T cells

T3 sequence (P29597 whole entry): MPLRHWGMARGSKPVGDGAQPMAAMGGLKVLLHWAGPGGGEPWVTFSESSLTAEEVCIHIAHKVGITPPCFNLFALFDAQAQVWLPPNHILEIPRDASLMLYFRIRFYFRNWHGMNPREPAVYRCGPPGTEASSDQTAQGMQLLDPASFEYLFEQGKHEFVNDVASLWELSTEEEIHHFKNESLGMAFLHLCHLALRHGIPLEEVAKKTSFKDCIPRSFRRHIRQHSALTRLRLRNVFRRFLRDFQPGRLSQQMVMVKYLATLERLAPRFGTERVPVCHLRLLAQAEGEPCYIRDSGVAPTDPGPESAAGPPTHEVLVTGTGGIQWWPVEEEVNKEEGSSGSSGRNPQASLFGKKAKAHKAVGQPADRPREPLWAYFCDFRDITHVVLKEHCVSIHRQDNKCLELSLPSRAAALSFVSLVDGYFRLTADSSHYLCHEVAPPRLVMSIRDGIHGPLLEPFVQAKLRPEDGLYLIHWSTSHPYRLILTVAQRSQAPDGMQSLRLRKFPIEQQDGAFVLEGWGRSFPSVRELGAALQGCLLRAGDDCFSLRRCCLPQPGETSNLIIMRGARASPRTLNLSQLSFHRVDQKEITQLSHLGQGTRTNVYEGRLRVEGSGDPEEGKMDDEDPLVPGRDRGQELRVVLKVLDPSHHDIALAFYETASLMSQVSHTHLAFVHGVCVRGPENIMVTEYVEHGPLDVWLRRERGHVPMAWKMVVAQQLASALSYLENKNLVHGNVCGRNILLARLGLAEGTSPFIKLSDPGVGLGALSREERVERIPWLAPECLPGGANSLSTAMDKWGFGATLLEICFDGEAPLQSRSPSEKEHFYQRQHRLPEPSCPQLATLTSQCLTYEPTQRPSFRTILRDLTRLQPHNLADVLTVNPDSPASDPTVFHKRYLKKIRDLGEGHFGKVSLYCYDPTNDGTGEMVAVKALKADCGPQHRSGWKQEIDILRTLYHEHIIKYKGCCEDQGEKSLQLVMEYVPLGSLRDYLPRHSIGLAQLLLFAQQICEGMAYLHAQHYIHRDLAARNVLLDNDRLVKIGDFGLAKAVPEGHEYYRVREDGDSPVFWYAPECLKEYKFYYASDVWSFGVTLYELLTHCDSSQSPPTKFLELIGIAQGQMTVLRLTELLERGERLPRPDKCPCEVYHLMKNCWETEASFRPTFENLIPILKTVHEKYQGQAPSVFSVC
T2 sequence (O60674 whole entry): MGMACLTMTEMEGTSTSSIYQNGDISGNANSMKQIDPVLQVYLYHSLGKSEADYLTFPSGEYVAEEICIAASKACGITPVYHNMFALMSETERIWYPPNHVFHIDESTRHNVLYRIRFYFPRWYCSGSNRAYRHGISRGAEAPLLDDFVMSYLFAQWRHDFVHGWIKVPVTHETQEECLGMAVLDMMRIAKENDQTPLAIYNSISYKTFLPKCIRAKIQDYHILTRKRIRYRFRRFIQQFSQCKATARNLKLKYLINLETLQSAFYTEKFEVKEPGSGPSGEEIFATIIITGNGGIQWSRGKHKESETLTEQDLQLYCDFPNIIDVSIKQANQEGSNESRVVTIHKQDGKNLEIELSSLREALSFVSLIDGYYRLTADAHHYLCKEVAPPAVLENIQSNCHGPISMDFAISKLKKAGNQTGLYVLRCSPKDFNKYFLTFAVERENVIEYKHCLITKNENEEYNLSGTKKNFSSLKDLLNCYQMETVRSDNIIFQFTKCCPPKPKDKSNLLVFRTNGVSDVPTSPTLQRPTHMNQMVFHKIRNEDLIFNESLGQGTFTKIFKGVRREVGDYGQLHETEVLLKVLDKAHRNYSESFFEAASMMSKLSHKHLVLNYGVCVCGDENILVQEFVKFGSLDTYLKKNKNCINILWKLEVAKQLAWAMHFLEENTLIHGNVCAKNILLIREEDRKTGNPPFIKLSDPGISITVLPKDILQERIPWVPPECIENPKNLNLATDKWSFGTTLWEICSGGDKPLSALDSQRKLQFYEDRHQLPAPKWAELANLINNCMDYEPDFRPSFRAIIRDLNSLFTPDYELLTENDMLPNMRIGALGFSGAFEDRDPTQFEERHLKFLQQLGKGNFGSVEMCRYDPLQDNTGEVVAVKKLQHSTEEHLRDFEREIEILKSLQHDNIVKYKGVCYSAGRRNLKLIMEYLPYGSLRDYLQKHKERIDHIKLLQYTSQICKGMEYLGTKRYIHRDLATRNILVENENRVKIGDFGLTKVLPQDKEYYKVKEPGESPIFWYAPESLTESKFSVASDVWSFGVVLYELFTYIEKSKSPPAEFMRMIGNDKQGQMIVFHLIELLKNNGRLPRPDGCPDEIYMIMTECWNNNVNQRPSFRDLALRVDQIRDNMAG
T1 sequence (P23458 whole entry): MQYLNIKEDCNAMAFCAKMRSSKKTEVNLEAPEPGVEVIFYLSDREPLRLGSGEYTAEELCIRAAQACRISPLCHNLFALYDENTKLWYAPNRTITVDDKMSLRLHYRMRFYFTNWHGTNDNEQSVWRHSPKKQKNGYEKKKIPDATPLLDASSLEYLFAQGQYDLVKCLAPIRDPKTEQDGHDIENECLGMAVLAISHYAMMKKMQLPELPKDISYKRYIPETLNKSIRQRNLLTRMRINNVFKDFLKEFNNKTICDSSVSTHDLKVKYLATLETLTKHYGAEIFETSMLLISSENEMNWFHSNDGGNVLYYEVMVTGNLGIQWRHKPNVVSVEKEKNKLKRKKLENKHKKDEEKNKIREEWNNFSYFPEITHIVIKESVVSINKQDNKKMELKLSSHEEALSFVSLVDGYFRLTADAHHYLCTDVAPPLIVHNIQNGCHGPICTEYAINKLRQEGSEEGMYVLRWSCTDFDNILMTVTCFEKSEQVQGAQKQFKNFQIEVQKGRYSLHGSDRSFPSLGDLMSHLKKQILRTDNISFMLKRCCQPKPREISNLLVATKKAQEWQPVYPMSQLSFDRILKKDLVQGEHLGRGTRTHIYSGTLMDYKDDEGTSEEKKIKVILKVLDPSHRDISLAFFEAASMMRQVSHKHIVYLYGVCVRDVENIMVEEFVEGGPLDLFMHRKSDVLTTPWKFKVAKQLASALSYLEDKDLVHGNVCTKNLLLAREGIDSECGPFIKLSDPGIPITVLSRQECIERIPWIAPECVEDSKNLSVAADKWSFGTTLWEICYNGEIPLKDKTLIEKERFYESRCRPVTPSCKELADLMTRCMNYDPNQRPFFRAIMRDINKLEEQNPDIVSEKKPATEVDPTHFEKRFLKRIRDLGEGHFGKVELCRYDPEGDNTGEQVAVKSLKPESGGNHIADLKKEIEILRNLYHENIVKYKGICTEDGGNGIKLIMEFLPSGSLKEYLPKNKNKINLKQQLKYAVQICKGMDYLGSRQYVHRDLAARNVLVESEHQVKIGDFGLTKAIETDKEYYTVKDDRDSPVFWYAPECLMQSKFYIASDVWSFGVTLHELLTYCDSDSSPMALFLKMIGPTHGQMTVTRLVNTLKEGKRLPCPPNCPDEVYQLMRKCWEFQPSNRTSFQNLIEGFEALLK

SMILES | JAK 1 (pKi) (JAK1) | Tall-1 (pIC50) [1, 2] | JAK 2 (pKi) (JAK2) | Tyk 2 (pKi) (Tyk2) | JAK 3 (pKi) (JAK3) | JAK3 (pKi)-JAK1 (pKi) (JAK3; [3]) | Tall-1 (pIC50) [1, 4] | JAK3 (pKi)-JAK1 (pKi) (JAK3; [5]) | Ki (JAK1) | IC50 [1, 6] | Ki (JAK2) | Ki (Tyk2) | Ki (JAK3) | IC50 [1, 7]
CN(C)C/C=C/C(=O)N1CC(C#N)(COc2nc(-c3ccc(O)c(F)c3)cc3[nH]ncc23)C1 [Compound 3-106] | E (a pKi value of 7 or below (Ki of 100 nM or above)) | B (a pIC50 value between 6.7 (included) and 7.5 (IC50 between 200 nM and 32 nM)) | E (a pKi value of 7 or below (Ki of 100 nM or above)) | E (a pKi value of 7 or below (Ki of 100 nM or above)) | B (a pKi value between 9 and 10 (Ki between 1 nM and 0.1 nM)) | A (a value of 3 or above) | – | – | – | – | – | – | – | –
C=CC(=O)N1CC(C)(CNc2cc(-c3ccc(O)cc3)cc3[nH]ncc23)C1 [Compound 4-2] | D (a pKi value between 7 and 8 (Ki between 100 nM and 10 nM)) | B (a pIC50 value between 6.7 (included) and 7.5 (IC50 between 200 nM and 32 nM)) | D (a pKi value between 7 and 8 (Ki between 100 nM and 10 nM)) | E (a pKi value of 7 or below (Ki of 100 nM or above)) | B (a pKi value between 9 and 10 (Ki between 1 nM and 0.1 nM)) | B (a value of 2.3 to 3) | – | – | – | – | – | – | – | –
C=CC(=O)N1CC(CSc2cc(-c3ccc(O)c(Cl)c3)cc3[nH]ncc23)C1 [Compound 13-8] | E (a pKi value of 7 or below (Ki of 100 nM or above)) | – | E (a pKi value of 7 or below (Ki of 100 nM or above)) | E (a pKi value of 7 or below (Ki of 100 nM or above)) | B (a pKi value between 9 and 10 (Ki between 1 nM and 0.1 nM)) | – | A (a pIC50 value≥7.5 (IC50≤32 nM)) | A (a value of 3 or above) | – | – | – | – | – | –
C=CC(=O)N1CC(COc2cc(-c3ccc(O)c(OC)c3)cc3[nH]ncc23)C1 [Compound 3-83] | – | – | – | – | – | A (a value of 3 or above) | – | – | > 100 nM | < 31.6 nM | > 100 nM | > 100 nM | < 0.1 nM | –
C=C(CN(C)C)C(=O)N1CC(COc2nc(-c3ccc(O)cc3)nc3[nH]ncc23)C1 [Compound 3-112] | – | – | – | – | – | A (a value of 3 or above) | – | – | > 100 nM | 31.6 to 200 nM | > 100 nM | > 100 nM | 0.1 to 1 nM | –
CN(C)C/C=C/C(=O)N1CC2(CCC2Oc2cc(-c3ccc(O)cc3)cc3[nH]ncc23)C1 (stereo not drawn) [Compound 12-53] | – | – | – | – | – | – | – | B (a value of 2.3 to 3) | > 100 nM | – | 1 to 10 nM | > 100 nM | 0.1 to 1 nM | < 31.6 nM
C=CC(=O)N1CC(Oc2nc(-c3ccc(O)cc3)nc3[nH]ncc23)CC1C (stereo not drawn) [Compound 1-24] | E (a pKi value of 7 or below (Ki of 100 nM or above)) | C (a pIC50 value between 6 and 6.7 (IC50 between 1 μM and 200 nM)) | E (a pKi value of 7 or below (Ki of 100 nM or above)) | E (a pKi value of 7 or below (Ki of 100 nM or above)) | B (a pKi value between 9 and 10 (Ki between 1 nM and 0.1 nM)) | A (a value of 3 or above) | – | – | – | – | – | – | – | –
C=CC(=O)N1CC(CSc2cc(-c3ccc(O)c(Cl)c3)nc3[nH]ncc23)C1 [Compound 13-1] | E (a pKi value of 7 or below (Ki of 100 nM or above)) | – | E (a pKi value of 7 or below (Ki of 100 nM or above)) | E (a pKi value of 7 or below (Ki of 100 nM or above)) | B (a pKi value between 9 and 10 (Ki between 1 nM and 0.1 nM)) | – | B (a pIC50 value between 6.7 (included) and 7.5 (IC50 between 200 nM and 32 nM)) | A (a value of 3 or above) | – | – | – | – | – | –
C=CC(=O)N1CCC(C#N)(C(=O)Nc2cc(-c3ccc(O)cc3)cc3[nH]ncc23)CC1 [Compound 12-41] | – | – | – | – | – | – | – | A (a value of 3 or above) | > 100 nM | – | > 100 nM | > 100 nM | 0.1 to 1 nM | < 31.6 nM
C=CC(=O)N1CC[C@H](Oc2cc(-c3ccc(O)cc3)cc3[nH]nc(C#N)c23)C1 [Compound 1-45] | – | – | – | – | – | A (a value of 3 or above) | – | – | > 100 nM | < 31.6 nM | > 100 nM | > 100 nM | < 0.1 nM | –
C=CC(=O)N1CC(CC)(COc2cc(-c3ccc(O)c(Cl)c3)nc3[nH]ncc23)C1 [Compound 3-69] | E (a pKi value of 7 or below (Ki of 100 nM or above)) | B (a pIC50 value between 6.7 (included) and 7.5 (IC50 between 200 nM and 32 nM)) | E (a pKi value of 7 or below (Ki of 100 nM or above)) | E (a pKi value of 7 or below (Ki of 100 nM or above)) | A (a pKi value≥10 (Ki≤0.1 nM)) | A (a value of 3 or above) | – | – | – | – | – | – | – | –
C=CC(=O)N1CC(C)(COc2nc(-c3ccc(O)c(Cl)c3)cc3[nH]ncc23)C1 [Compound 3-97] | E (a pKi value of 7 or below (Ki of 100 nM or above)) | A (a pIC50 value≥7.5 (IC50≤32 nM)) | E (a pKi value of 7 or below (Ki of 100 nM or above)) | E (a pKi value of 7 or below (Ki of 100 nM or above)) | B (a pKi value between 9 and 10 (Ki between 1 nM and 0.1 nM)) | B (a value of 2.3 to 3) | – | – | – | – | – | – | – | –
C=CC(=O)N1CC(COc2cc(-c3ccc(O)c(Cl)c3)cc3[nH]ncc23)(OC)C1 [Compound 3-73] | E (a pKi value of 7 or below (Ki of 100 nM or above)) | A (a pIC50 value≥7.5 (IC50≤32 nM)) | E (a pKi value of 7 or below (Ki of 100 nM or above)) | E (a pKi value of 7 or below (Ki of 100 nM or above)) | A (a pKi value≥10 (Ki≤0.1 nM)) | A (a value of 3 or above) | – | – | – | – | – | – | – | –
CN(C)C/C=C/C(=O)N1CC2(CC(Oc3cc(-c4ccc(O)c(F)c4)cc4[nH]ncc34)C2)C1 [Compound 15-5] | D (a pKi value between 7 and 8 (Ki between 100 nM and 10 nM)) | – | D (a pKi value between 7 and 8 (Ki between 100 nM and 10 nM)) | E (a pKi value of 7 or below (Ki of 100 nM or above)) | B (a pKi value between 9 and 10 (Ki between 1 nM and 0.1 nM)) | – | B (a pIC50 value between 6.7 (included) and 7.5 (IC50 between 200 nM and 32 nM)) | B (a value of 2.3 to 3) | – | – | – | – | – | –
C=CC(=O)N1CCOC[C@H]1C(=O)Nc1cc(-c2ccc(O)cc2)cc2[nH]ncc12 [Compound 12-63] | – | – | – | – | – | – | – | A (a value of 3 or above) | > 100 nM | – | > 100 nM | > 100 nM | 0.1 to 1 nM | 31.6 to 200 nM
C=CC(=O)N1CC(COc2nc(-c3ccc(O)cc3)nc3[nH]ncc23)C1C (stereo not drawn) [Compound 3-31] | E (a pKi value of 7 or below (Ki of 100 nM or above)) | B (a pIC50 value between 6.7 (included) and 7.5 (IC50 between 200 nM and 32 nM)) | E (a pKi value of 7 or below (Ki of 100 nM or above)) | E (a pKi value of 7 or below (Ki of 100 nM or above)) | A (a pKi value≥10 (Ki≤0.1 nM)) | A (a value of 3 or above) | – | – | – | – | – | – | – | –
